What was measured:
OR2 [1] = molecular target: OR2 (Homo sapiens, UniProt P41145, G198V/DELINS201-226[…]/E297Q, form not given); assay type: cell-based; details: read-out: EC50, signaling by OR2; signaling by OR2
OR2 [2] = assay type: cell-based, human
Wild-type KOR [3] = molecular target: T1, Wild-type KOR (Homo sapiens, UniProt P41145); test: Signaling (activation of G protein-mediated signals, adenylyl cyclase inhibition) by wild-type KOR; assay type: cell-based
T1 construct: expressed in transfected cells; host or cells: COS-7 and CHO-KI (for OR1 and OR2)

OR1 [4] = molecular target: OR1 (Homo sapiens, UniProt P41145, G198V/DELINS201-226[…], form not given); test: Signaling (activation of G protein-mediated signals, adenylyl cyclase inhibition) by OR1; assay type: cell-based
OR1 [5] = test: as above; assay type: cell-based, human; details: relative to signal detected with wild-type KOR
OR1 [6] = assay type: binding, human
Wild-type KOR [7] = molecular target: T1, Wild-type KOR; test: biochemical; assay type: binding
OR2 [8] = assay type: binding, human
[9] = relative to signal detected with wild-type KOR

T1 sequence (P41145 whole entry): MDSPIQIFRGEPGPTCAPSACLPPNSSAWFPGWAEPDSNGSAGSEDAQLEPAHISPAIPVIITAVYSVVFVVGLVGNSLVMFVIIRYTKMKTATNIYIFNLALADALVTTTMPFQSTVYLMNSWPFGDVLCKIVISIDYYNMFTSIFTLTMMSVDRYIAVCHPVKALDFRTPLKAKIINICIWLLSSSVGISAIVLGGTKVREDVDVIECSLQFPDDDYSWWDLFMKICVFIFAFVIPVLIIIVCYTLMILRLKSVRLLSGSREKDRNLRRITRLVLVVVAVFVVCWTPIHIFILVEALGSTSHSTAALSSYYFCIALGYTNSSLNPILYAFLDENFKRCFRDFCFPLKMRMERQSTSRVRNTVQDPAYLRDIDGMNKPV
Chain of OR1 (Homo sapiens, UniProt P41145, G198V/DELINS201-226[…], form not given) (P41145 with tags, fused parts or gaps DELINS198-226[withheld], form open): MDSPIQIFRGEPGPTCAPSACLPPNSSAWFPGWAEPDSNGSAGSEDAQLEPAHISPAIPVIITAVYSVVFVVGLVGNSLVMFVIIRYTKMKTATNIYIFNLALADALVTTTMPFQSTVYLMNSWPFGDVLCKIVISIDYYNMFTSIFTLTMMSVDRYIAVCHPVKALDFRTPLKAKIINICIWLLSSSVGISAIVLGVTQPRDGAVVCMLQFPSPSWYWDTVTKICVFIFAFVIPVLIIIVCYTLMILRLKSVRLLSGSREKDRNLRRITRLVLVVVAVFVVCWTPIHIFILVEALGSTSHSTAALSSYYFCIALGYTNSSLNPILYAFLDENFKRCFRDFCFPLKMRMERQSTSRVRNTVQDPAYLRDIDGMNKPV
Chain of OR2 (Homo sapiens, UniProt P41145, G198V/DELINS201-226[…]/E297Q, form not given) (P41145 with tags, fused parts or gaps DELINS198-226[withheld]/E297Q, form open): as the sequence (P41145 with tags, fused parts or gaps DELINS198-226[withheld], form open) above, with E294Q counted along it

CCC12CCN(CC3(O)CC3)C(Cc3ccc(O)cc31)C2(C)C (stereo not drawn) [Bremazocine, bremazocine]
EC50 (OR2 [1]): 0.34 nM
Fold decrease in signaling, OR2 (OR2 [2]; [9]): 5.17 fold
Biochemical Signal, decrease (summary), OR2 (OR2 [2]; summary table, ↓ = decrease versus wild-type KOR): ↓5x
Amount of ligand required to activate the biochemical signal at OR2 compared to wild-type KOR (OR2 [2]; times more ligand than for wild type KOR): about 5 times
EC50 (Wild-type KOR [3]): 0.067 nM
Fold decrease in signaling, Wild-type KOR (Wild-type KOR [3]; [9]): 1 fold
Inhibition of adenylyl cyclase by OR1 in response to ligand (OR1 [4]; dynorphin only at high concentrations): inhibits adenylyl cyclase
EC50 (OR1 [4]; read-out: EC50, signaling by OR1, signaling by OR1): 0.068 nM
Fold decrease in signaling, OR1 (OR1 [5]): 1 fold
Change in binding affinity of OR1 relative to native human KOR (OR1 [6]): no significant change
Fold decrease in binding, OR1 (OR1 [6]): 1.7 fold
Fold decrease in binding, Wild-type KOR (Wild-type KOR [7]): 1 fold
Ki (Wild-type KOR [7]): 0.038 nM
Change in binding affinity of OR2 relative to native human KOR (OR2 [8]): no change
Fold decrease in binding, OR2 (OR2 [8]): 1.2 fold

Source: patent US6518480B1 (priority 1996, dated 2003)
